From ChEMBL document CHEMBL1201862, “PubChem BioAssay data set” (2004)
Each block holds one compound with its values, some of them ahead of it. Activity calls are given as the source filed them.

Legend:
[1] = biological target: Cytochrome P450 2C19 (Homo sapiens, UniProt P33261); assay: Cytochrome panel assay with activity outcomes. Panel member name: p450-cyp2c19 Compounds with AC50 equal or less than 10 uM are considered active; type: functional; conditions: read-out: AC50
[2] = biological target: Cytochrome P450 2D6 (Homo sapiens, UniProt P10635);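 further: CYP2D6 member of a cytochrome P450 panel assay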
Sequence of Cytochrome P450 2D6 (P10635 whole entry): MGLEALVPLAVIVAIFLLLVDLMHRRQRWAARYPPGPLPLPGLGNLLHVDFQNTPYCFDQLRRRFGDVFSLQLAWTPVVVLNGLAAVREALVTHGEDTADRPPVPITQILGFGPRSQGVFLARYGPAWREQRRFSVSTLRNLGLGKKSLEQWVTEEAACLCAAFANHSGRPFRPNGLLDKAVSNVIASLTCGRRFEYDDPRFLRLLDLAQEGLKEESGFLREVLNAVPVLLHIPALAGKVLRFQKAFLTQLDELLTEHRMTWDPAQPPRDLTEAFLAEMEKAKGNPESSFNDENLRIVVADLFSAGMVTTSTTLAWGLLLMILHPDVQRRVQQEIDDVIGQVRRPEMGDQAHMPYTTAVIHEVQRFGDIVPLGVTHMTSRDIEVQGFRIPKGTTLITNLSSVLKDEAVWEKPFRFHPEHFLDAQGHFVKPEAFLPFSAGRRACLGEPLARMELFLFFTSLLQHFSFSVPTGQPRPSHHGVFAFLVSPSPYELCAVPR

[3] = biological target: Cytochrome P450 2C9 (Homo sapiens, UniProt P11712)
Sequence of Cytochrome P450 2C9 (P11712 whole entry): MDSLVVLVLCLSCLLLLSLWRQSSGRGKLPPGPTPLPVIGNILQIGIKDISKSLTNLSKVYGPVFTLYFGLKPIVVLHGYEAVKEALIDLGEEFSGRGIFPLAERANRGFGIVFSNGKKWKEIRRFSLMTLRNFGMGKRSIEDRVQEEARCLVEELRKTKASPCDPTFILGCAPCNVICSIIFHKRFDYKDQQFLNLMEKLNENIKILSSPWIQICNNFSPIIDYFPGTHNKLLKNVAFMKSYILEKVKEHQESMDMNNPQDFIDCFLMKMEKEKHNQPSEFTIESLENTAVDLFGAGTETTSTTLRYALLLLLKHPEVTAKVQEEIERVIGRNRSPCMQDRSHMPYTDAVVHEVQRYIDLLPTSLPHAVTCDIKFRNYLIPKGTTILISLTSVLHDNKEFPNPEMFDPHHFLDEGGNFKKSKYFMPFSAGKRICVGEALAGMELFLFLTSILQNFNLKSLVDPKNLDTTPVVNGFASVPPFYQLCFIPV

[4] = test system: H9c2; assay: cells; type: functional, cell-based; conditions: Rattus norvegicus, H9c2, Myocardium;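 further: confirmatory concentration-response retest of ultra-high-throughput screening hits for modulation of myocardial damage; cell death induced by hydrogen peroxide oxidative stress; compound pretreatment for 60 min then peroxide exposure for 2 h; potency is for protecting the cells against peroxide damage rather than for killing them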
[5] = biological target: Luciferin 4-monooxygenase (Photinus pyralis, UniProt P08659); assay: inhibition of purified Photinus pyralis luciferase – biochemical, luminescence, dose response (AID 1891)
Sequence of Luciferin 4-monooxygenase (P08659 whole entry): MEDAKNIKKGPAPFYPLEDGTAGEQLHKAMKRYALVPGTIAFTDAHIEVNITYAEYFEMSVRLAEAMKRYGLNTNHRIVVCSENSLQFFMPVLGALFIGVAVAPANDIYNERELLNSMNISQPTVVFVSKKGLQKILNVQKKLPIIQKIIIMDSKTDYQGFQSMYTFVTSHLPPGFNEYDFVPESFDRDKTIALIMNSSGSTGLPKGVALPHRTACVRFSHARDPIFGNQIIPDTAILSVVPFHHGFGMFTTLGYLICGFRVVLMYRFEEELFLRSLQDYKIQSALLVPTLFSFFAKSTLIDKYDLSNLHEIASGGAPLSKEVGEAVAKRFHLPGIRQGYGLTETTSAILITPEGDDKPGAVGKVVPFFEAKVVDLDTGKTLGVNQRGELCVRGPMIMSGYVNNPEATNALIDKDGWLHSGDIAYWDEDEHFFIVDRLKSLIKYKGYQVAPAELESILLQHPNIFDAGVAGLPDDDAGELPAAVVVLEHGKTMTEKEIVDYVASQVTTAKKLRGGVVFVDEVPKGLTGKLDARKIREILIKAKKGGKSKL

[6] = Luminescence Cell-Based Dose Confirmation HTS to Identify Inhibitors of Platelet Dense Granule Release. [Related pubchem assays: 1663 (Primary HTS), 1678 (Summary of Project)]; type: functional
[7] = test system: HEK293; assay: EBV LMP1 TES2 canonical NF-kB signalling blockers – cell-based, HEK293, luciferase, cherry-pick, dose response (AID 588343); type: functional; conditions: Homo sapiens
[8] = biological target: T1, Histone-lysine N-methyltransferase NSD2 (Homo sapiens, UniProt O96028); type: biochemical
T1 sequence (O96028 whole entry): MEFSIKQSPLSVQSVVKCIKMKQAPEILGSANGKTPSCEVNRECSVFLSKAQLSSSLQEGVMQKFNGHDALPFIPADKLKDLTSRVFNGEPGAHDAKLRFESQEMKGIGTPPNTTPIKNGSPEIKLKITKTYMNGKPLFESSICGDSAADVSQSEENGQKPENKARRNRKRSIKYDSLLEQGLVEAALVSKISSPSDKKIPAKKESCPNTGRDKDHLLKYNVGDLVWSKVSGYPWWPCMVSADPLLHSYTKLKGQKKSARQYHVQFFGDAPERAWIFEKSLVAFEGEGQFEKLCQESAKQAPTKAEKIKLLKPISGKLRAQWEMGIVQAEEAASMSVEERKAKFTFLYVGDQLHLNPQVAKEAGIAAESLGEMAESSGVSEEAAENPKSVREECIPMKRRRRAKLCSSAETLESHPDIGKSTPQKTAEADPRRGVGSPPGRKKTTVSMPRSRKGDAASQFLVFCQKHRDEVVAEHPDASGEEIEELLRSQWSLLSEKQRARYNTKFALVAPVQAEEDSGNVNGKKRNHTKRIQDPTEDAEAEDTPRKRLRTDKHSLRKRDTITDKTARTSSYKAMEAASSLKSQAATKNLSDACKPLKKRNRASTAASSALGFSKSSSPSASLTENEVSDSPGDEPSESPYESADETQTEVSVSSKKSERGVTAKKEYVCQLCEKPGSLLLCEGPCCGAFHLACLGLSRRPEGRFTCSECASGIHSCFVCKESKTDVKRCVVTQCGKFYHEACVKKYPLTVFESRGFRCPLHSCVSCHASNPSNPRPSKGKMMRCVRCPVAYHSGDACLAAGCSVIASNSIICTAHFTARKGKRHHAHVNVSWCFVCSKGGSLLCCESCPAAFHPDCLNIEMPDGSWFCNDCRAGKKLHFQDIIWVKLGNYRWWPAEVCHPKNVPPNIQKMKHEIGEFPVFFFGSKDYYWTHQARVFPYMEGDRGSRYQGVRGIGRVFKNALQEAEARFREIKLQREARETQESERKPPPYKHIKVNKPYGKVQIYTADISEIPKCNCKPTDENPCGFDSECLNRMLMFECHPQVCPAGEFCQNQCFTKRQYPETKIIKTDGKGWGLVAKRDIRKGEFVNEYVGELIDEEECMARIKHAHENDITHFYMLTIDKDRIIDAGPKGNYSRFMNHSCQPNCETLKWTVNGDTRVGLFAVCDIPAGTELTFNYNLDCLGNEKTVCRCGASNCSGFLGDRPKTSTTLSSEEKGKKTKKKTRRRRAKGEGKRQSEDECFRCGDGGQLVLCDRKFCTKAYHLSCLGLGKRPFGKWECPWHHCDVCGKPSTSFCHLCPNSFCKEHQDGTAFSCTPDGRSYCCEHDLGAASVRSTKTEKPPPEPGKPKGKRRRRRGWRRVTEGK

[9] = biological target: T2, Short transient receptor potential channel 4 (Mus musculus, UniProt Q9QUQ5); assay: calcium entry via TRPC4 opening agents – cell-based, HEK293 TRPC4/mu-opioid, Fluo-4 calcium, dose response (AID 434937); type: functional
T2 sequence (Q9QUQ5 whole entry): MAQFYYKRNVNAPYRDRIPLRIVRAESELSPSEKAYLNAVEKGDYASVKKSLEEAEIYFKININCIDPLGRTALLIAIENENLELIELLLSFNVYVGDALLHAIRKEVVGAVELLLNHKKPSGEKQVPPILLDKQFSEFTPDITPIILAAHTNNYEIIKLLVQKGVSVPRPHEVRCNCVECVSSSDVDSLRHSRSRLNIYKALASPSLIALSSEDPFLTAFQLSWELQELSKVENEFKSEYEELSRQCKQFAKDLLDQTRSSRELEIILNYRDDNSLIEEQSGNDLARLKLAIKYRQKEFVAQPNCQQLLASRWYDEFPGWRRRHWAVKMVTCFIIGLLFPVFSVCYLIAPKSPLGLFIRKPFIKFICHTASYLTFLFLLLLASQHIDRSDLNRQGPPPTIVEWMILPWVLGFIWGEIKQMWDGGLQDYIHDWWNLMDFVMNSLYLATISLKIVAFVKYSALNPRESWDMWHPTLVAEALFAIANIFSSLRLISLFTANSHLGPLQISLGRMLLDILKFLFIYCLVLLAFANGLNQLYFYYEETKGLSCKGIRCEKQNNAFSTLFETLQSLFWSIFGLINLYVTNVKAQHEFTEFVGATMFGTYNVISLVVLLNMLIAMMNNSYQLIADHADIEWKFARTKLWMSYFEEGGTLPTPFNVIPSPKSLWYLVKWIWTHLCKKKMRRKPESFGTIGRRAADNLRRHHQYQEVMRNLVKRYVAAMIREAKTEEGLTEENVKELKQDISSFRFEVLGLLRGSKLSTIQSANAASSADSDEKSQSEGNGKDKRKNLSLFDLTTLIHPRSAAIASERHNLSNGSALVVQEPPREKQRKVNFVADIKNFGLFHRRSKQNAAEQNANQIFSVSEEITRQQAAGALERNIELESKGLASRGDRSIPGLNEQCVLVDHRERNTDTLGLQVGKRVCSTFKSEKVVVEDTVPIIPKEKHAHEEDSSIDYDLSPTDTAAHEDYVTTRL

[10] = biological target: T2, Short transient receptor potential channel 4; assay: block of DAMGO-driven TRPC4 calcium entry – cell-based, HEK293 TRPC4/mu-opioid, Fluo-4 calcium, dose response (AID 434942); type: functional;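 further: potency of inhibitors blocking the TRPC4 calcium response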
[11] = biological target: T3, DNA repair and recombination protein RAD54-like (Homo sapiens, UniProt Q92698); assay: RAD54 Holliday junction migration blockers – biochemical, fluorescence, cherry-picked samples, dose series, confirmation (AID 651657); type: functional
T3 sequence (Q92698 whole entry): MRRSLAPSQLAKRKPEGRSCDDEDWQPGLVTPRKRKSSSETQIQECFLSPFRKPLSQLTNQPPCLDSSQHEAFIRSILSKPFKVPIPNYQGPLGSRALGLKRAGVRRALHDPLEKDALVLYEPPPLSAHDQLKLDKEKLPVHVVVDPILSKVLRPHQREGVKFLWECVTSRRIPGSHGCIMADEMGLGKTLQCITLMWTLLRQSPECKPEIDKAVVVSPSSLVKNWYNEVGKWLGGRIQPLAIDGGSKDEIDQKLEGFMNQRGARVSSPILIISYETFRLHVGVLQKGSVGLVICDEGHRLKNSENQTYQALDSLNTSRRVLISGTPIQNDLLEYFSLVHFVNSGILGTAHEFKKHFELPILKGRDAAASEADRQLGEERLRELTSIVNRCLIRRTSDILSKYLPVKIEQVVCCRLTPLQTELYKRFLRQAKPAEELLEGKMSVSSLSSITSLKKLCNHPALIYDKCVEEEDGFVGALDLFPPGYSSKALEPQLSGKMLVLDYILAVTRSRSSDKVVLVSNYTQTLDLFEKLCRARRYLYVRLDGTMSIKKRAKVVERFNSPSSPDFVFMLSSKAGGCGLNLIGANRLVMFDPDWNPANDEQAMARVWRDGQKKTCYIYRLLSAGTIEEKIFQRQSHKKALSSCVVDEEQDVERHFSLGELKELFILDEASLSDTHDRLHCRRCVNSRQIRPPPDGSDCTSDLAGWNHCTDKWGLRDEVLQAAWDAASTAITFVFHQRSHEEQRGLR

Sequence of Cytochrome P450 2C19 (P33261 whole entry): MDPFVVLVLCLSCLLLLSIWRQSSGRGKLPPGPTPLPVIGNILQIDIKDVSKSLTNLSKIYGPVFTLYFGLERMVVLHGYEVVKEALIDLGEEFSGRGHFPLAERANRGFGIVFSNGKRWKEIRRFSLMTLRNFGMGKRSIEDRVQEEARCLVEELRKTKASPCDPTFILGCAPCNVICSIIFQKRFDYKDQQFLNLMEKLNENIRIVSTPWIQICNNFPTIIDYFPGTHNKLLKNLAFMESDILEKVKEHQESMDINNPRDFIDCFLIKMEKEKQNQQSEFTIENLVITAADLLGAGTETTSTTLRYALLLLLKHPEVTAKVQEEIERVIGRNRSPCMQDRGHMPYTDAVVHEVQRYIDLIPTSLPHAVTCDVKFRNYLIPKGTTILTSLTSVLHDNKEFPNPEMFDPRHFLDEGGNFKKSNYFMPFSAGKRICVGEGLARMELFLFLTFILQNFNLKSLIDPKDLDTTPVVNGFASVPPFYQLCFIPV

AC50 [1]: 25.1 µM (inconclusive)
AC50 [2]: 12.6 µM (inconclusive)
AC50 [3]: inconclusive
SMILES: COc1cccc(C(=O)NNC2=CC(=O)CC(C)(C)C2)c1

SMILES: N#CC1(NC(=O)COC(=O)Cn2[nH]c(=O)c3ccccc3c2=O)CCCCC1
IC50 [4]: > 79 µM (inactive)

SMILES: COc1ccc(-c2cn3ccc(C)cc3n2)cc1
EC50 [5]: 1.13 µM (active)
EC50 [6]: 9.75 µM (active)
AC50 [7]: 2.62 µM (active)

AC50 [8]: > 20 µM (inactive)
SMILES: CCN(CC)CCC/N=C(\C)C1=C(O)c2ccccc2C1=O

EC50 [9]: 0.668 µM (active)
EC50 [10]: 0.299 µM (active)
SMILES: CN(C)C1(CNC(=O)CC(NC(=O)c2ccccc2Cl)c2ccccc2)CCCCC1 (configuration not stated)

SMILES: O=C(CCCc1ccc(N(CCCl)CCCl)cc1)NCc1ccccc1
AC50 [7]: 2.74 µM (active)

AC50 [11]: 100 µM (inactive)
SMILES: Cc1cc(C)n(-c2nc(NCCN(C)C)c3c4c(sc3n2)COC(C)(C)C4)n1

SMILES: CNCC[C@H](Oc1ccc(C(F)(F)F)cc1)c1ccccc1
AC50 [3]: inactive

AC50 [11]: 56.7 µM (active)
SMILES: Cc1ccc2nc(O)c3cc(C(=O)NCCN4CCN(C)CC4)sc3c2c1

SMILES: CCOc1ccc2nc(NC(=O)CN3CCC(n4nnc5cc(F)ccc54)CC3)sc2c1
IC50 [4]: > 79 µM (inactive)

AC50 [1]: 17.8 µM (inconclusive)
AC50 [3]: inconclusive
SMILES: FC(F)(F)c1cc(C(F)(F)F)c2ccc(N/N=C/c3cccc(Cl)c3)nc2n1
